This is an account of results in US12187723B2 (BRISTOL-MYERS SQUIBB COMPANY, priority 2019, dated 2025).

Assay [1] concerns the target T1, human TLR7 (Homo sapiens, UniProt Q9NYK1).
T1 construct: host or cells: HEK-Blue cells
T1 sequence (Q9NYK1 27-1049): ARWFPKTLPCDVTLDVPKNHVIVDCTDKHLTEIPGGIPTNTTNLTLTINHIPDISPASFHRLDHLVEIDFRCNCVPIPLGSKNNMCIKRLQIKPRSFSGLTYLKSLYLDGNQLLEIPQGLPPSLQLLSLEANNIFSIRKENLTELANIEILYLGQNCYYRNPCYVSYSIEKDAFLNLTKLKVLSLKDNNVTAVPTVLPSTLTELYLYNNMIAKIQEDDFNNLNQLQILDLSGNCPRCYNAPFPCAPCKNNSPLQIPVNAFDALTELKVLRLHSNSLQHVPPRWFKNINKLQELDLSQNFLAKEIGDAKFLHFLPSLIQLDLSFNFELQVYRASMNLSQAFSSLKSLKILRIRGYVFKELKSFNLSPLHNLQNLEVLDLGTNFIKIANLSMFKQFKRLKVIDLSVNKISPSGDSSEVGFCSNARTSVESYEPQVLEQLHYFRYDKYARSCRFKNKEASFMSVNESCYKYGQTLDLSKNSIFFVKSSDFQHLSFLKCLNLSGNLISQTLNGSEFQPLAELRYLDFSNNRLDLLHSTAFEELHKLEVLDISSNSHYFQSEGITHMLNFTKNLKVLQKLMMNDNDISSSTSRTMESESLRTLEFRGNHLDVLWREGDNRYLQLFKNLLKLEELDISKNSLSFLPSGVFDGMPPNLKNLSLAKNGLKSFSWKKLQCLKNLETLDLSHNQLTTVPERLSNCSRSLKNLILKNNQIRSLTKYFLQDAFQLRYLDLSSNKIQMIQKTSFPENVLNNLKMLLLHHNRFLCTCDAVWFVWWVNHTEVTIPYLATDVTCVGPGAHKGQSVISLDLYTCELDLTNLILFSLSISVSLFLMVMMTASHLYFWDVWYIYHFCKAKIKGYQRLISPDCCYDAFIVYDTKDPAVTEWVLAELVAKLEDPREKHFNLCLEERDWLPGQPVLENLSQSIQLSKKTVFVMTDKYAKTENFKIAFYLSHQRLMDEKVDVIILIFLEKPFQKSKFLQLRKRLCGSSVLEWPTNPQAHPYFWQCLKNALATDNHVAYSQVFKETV
As to the kind of experiment: TLR7 inhibition reporter assay (HEK-Blue SEAP). Type of assay: cell-based. The conditions noted are these: HEK-Blue cells overexpressing human TLR7, gardiquimod 7.5 μM, 22 hour incubation. In outline: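 Cells (15000/well for TLR7, 20,000 for TLR8) were treated with compounds over 0.05 nM-50 μM final. After 22 h at 37° C, 5% CO2, SEAP was measured with HEK-Blue Detection reagent; percent inhibition was taken as reduction of agonist-plus-DMSO signal relative to a known inhibitor.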
For orientation: A reporter such as luciferase makes a cellular process visible.

The target of assay [2] is T2, human TLR8 (Homo sapiens, UniProt Q9NR97).
T2 construct: host or cells: HEK-Blue cells
T2 sequence (Q9NR97 27-1041): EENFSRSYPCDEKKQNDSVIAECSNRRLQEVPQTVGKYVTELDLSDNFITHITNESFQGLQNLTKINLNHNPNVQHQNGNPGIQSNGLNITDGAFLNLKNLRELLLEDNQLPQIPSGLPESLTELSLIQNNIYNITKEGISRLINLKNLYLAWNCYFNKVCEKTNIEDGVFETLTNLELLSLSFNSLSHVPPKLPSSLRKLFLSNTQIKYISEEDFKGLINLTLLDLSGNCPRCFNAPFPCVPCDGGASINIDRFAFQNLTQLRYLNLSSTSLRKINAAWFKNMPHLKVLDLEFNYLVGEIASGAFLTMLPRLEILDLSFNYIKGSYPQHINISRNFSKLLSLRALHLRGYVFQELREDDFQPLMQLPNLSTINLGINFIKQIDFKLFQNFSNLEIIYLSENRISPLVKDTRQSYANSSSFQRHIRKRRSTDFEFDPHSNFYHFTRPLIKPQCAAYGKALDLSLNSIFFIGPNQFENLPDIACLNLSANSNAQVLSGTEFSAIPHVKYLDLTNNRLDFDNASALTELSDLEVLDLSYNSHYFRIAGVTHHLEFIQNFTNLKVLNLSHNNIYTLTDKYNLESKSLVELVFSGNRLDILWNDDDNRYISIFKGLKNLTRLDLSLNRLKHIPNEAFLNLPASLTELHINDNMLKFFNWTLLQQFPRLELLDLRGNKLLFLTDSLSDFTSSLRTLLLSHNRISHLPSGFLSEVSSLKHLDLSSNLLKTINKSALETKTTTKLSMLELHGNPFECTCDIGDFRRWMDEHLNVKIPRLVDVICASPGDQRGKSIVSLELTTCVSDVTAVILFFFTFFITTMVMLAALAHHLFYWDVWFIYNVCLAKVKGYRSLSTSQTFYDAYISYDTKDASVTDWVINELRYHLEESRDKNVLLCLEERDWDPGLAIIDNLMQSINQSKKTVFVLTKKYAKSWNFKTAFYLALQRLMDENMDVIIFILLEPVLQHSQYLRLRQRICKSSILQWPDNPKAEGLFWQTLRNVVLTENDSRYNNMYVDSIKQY
As to the kind of experiment: TLR8 inhibition reporter assay (HEK-Blue SEAP). Format: cell-based. The conditions noted are these: HEK-Blue cells overexpressing human TLR8, R848 15.9 μM, 22 hour incubation. Summed up:
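Human TLR7/8/9 HEK-Blue reporter lines; dose range 0.05 nM–50 μM; 30 min RT preincubation; stimulus gardiquimod 7.5 μM / R848 15.9 μM / ODN2006 5 nM respectively; 22 h, 37 °C; SEAP detected colorimetrically.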

As a reminder, the IC50 is the concentration that inhibits the measured activity by half. `COCCNC1CCC(n2c(=O)[nH]c3cc(-c4cn5ncnc5c(OC)c4C)c(C(C)C)cc32)CC1` (centres unmarked) [Example 258]: the IC50 was 4.25 nM in assay [1] and 0.6 nM in assay [2].

On to `Cc1cc2c(cc1-c1cc(C)c3ncnn3c1)[nH]c(=O)n2[C@H]1CC[C@@H](NCCC(F)(F)F)CC1` [Example 31], for which the IC50 stood at 11.1 nM in assay [1] and 1.32 nM in assay [2].

Take `COC1CN(C2CCC(n3c(=O)[nH]c4cc(-c5cn6ncnc6c(C)c5C)c(C(C)C)cc43)CC2)C1` (single isomer, unassigned) [Example 278, 5-(7,8-dimethyl-[1,2,4]triazolo[1,5-a]pyridin-6-yl)-6-isopropyl-1-(4-(3-methoxyazetidin-1-yl)cyclohexyl)-1,3-dihydro-2H-benzo[d]imidazol-2-one]: the IC50 in assay [1] was found to be 7.88 nM; in assay [2] it was 1.57 nM.

On to `Cc1c(-c2cc3[nH]c(=O)n(C4CCC(N5CCC(F)(F)CC5)CC4)c3cc2C(C)C)cn2ncnc2c1C` (single isomer, unassigned) [Example 276, 1-(4-(4,4-difluoropiperidin-1-yl)cyclohexyl)-5-(7,8-dimethyl-[1,2,4]triazolo[1,5-a]pyridin-6-yl)-6-isopropyl-1,3-dihydro-2H-benzo[d]imidazol-2-one], for which the figures for the IC50 in assay [1] and in assay [2] were 61.7 nM and 1.92 nM, respectively.

`Cc1cc(-c2cc(C)c3ncnn3c2)cc2[nH]c(=O)n(C3CCNCC3)c12` [106 F, 7-methyl-5-(8-methyl-[1,2,4]triazolo[1,5-a]pyridin-6-yl)-1-(piperidin-4-yl)-1,3-dihydro-2H-benzo[d]imidazol-2-one]: the IC50 was found to be 50.5 nM in assay [1] and 433 nM in assay [2].

As for `COc1c(C)c(-c2cc3[nH]c(=O)n(C4CCC(N5CC(OC)C5)CC4)c3cc2C(C)C)cn2ncnc12` (centres unmarked) [Example 266, 6-isopropyl-5-(8-methoxy-7-methyl-[1,2,4]triazolo[1,5-a]pyridin-6-yl)-1-(4-(3-methoxyazetidin-1-yl)cyclohexyl)-1,3-dihydro-2H-benzo[d]imidazol-2-one], the IC50 in assay [1] worked out at 13.4 nM; in assay [2] it was 4.47 nM.

With `COc1cc(-c2cc3[nH]c(=O)n(C4CCC(N5CCC(OC)C5)CC4)c3cc2C(C)C)cn2ncnc12` (centres unmarked) [Example 285, 6-isopropyl-5-(8-methoxy-[1,2,4]triazolo[1,5-a]pyridin-6-yl)-1-(4-(3-methoxypyrrolidin-1-yl)cyclohexyl)-1,3-dihydro-2H-benzo[d]imidazol-2-one], the IC50 worked out at 0.66 nM in assay [1] and 0.13 nM in assay [2].

On to `COc1cc(-c2cc3[nH]c(=O)n(C4CCC(N(C)CCC(F)(F)F)CC4)c3cc2C(C)C)cn2ncnc12` (single isomer, unassigned) [Example 249, 6-isopropyl-5-(8-methoxy-[1,2,4]triazolo[1,5-a]pyridin-6-yl)-1-(4-(methyl(3,3,3-trifluoropropyl)amino)cyclohexyl)-1,3-dihydro-2H-benzo[d]imidazol-2-one], for which the IC50 in assay [1] amounted to 0.5 nM; in assay [2], 0.08 nM.

Regarding `COc1cc(-c2cc3[nH]c(=O)n(C4CCC(N(C)CCC(F)(F)F)CC4)c3cc2C(C)C)cn2ncnc12` (single isomer, unassigned) [Example 248, 6-isopropyl-5-(8-methoxy-[1,2,4]triazolo[1,5-a]pyridin-6-yl)-1-(4-(methyl(3,3,3-trifluoropropyl)amino)cyclohexyl)-1,3-dihydro-2H-benzo[d]imidazol-2-one], the IC50 in assay [1] came out at 1.12 nM; in assay [2], 0.17 nM.

With `Cc1cc2c(cc1-c1cc(C)c3ncnn3c1)[nH]c(=O)n2C1CCNCC1` [1 EA, 6-methyl-5-(8-methyl-[1,2,4]triazolo[1,5-a]pyridin-6-yl)-1-(piperidin-4-yl)-1,3-dihydro-2H-benzo[d]imidazol-2-one], the IC50 in assay [1] was 344 nM; in assay [2], 439 nM.

As to `COc1cc(-c2cc3[nH]c(=O)n(C4CCC(N5CCSCC5)CC4)c3cc2C(C)C)cn2ncnc12` (centres unmarked) [Example 251, 6-isopropyl-5-(8-methoxy-[1,2,4]triazolo[1,5-a]pyridin-6-yl)-1-(4-thiomorpholinocyclohexyl)-1,3-dihydro-2H-benzo[d]imidazol-2-one], the IC50 in assay [1] amounted to 3.54 nM; in assay [2], 0.95 nM.

Consider `COc1cc(-c2cc3[nH]c(=O)n(C4CCC(N5CCC(OC)C5)CC4)c3cc2C(C)C)cn2ncnc12` (centres unmarked) [Example 284, 6-isopropyl-5-(8-methoxy-[1,2,4]triazolo[1,5-a]pyridin-6-yl)-1-(4-(3-methoxypyrrolidin-1-yl)cyclohexyl)-1,3-dihydro-2H-benzo[d]imidazol-2-one], for which the IC50 in assay [1] was 0.7 nM; in assay [2] it was 0.18 nM.

Take `Cc1c(-c2cc3[nH]c(=O)n(C4CCC(N5CC6(COC6)C5)CC4)c3cc2C(C)C)cn2ncnc2c1C` (single isomer, unassigned) [Example 281, 1-(4-(2-oxa-6-azaspiro[3.3]heptan-6-yl)cyclohexyl)-5-(7,8-dimethyl-[1,2,4]triazolo[1,5-a]pyridin-6-yl)-6-isopropyl-1,3-dihydro-2H-benzo[d]imidazol-2-one]: the IC50 in assay [1] came to 12.4 nM; in assay [2] it was 2.67 nM.

With `COc1c(C)c(-c2cc3[nH]c(=O)n(C4CCC(NCC5(S(C)(=O)=O)CC5)CC4)c3cc2C(C)C)cn2ncnc12` (single isomer, unassigned) [Example 260], the IC50 in assay [1] amounted to 41.5 nM; in assay [2] it was 0.38 nM.

As to `Cc1cc2c(cc1-c1cc(C)c3ncnn3c1)[nH]c(=O)n2[C@@H]1CCCN(C2COC2)C1` [Example 18, (R)-6-methyl-5-(8-methyl-[1,2,4]triazolo[1,5-a]pyridin-6-yl)-1-(1-(oxetan-3-yl)piperidin-3-yl)-1,3-dihydro-2H-benzo[d]imidazol-2-one], the IC50 came out at 409 nM in assay [1] and 80.8 nM in assay [2].

For `COc1c(C)c(-c2cc3[nH]c(=O)n(C4CCC(N5CC(F)C5)CC4)c3cc2C(C)C)cn2ncnc12` (single isomer, unassigned) [Example 263, 1-(4-(3-fluoroazetidin-1-yl)cyclohexyl)-6-isopropyl-5-(8-methoxy-7-methyl-[1,2,4]triazolo[1,5-a]pyridin-6-yl)-1,3-dihydro-2H-benzo[d]imidazol-2-one], the IC50 was 7.93 nM in assay [1] and 2.91 nM in assay [2].
